Values of other authors as cited in US20180146647A1, “MEDETOMIDINE FOR USE IN CONTROLLING PARASITIC CRUSTACEANS ON FISH” (I-Tech AB, priority 2015, published 2018).

Experiments:
[1] = tested on: cyprid larvae; details: medetomidine 10 nM; Mol Pharmacol 78:237-248, 2010
[2] = tested on: algae; details: target protein lacking within algae
[3] = tested on: α2-adrenoceptor; details: given to mammals and fish; Sinclair, 2003; Ruuskanen et al., 2005

Cc1cccc(C(C)c2c[nH]cn2)c1C (racemic) [Medetomidine, (±) 4-[1-(2,3-Dimethylphenyl)ethyl]-1H-imidazole]
kicking of the cyprid larvae [1]: more than 100 kicks per minute | effect on algal growth [2]: no effect on algal growth | physiological effect in vertebrates [3]: sedation and locomotor inhibition
